Measurements: PMC9732821, “Neurotrophic Activity and Its Modulation by Zinc Ion of a Dimeric Peptide Mimicking the Brain-Derived Neurotrophic Factor N-Terminal Region” (ACS Chemical Neuroscience, 2022)

System: SH-SY5Y cells
Experiment: neurite outgrowth of differentiated SH-SY5Y cells
Format: cell-based, human
Settings: 3 days after 5 days retinoic acid
Protocol: Figure 3 Neurite outgrowth stimulated by BDNF and its mimetic peptide ligands. (A) Top, left: schematic timeline of the experiment. SH-SY5Y cells were differentiated for 5 days (d1–5) by addition of retinoic acid (RA, gray bar) in the cell medium. Then, cells were stimulated for 3 days (d6–8) with 150 ng/mL BDNF or different concentrations of its peptide-mimetics (black bar) or left untreated (white bar). On the right and bottom, representative images of the differentiated cells at the end of each treatment. Scale bar 50 μm. (B) Scatter dot plot of the total neurite length, normalized to the number of cell bodies present in each analyzed field. […] For each field, an average of 50–200 cells were counted. […] (C) Representative fluorescence images of DIV3 Ren cells stained with DAPI (blue) and β3-tubulin (green) after differentiation with the standard medium (CTRL), or with the standard medium supplemented with 50 ng/mL BDNF or with 1 μM d-bdnf. […] (D) Column plot of the mean ± SD fraction of β3-tubulin (green) positive on the total cells, counted in the DAPI channel of the analyzed fields (nfields) (CTRL: nfields = 10 and total ncells = 4756; BDNF: nfields = 11 and total ncells = 4330; d-bdnf: nfields = 10 and total ncells = 5619 cells; ****p < 0.0001, *p < 0.05 according to the one-way ANOVA with Dunnett’s multiple comparison test). […]

Substance: HSDPARRGELSVC-C-VSLEGRRAPDSH (disulfide) [d-bdnf]
- neurite network (1 and 5 μM, compared with BDNF 150 ng/mL): able to elicit a neurite network similar to that raised by nM concentrations of BDNF
- neurite network (higher doses (10 μM)): not able to produce the same effect
